PMC9630261 (2022)

Assays:
Assay in all cases: fluorescence quenching titration of drug with DNA
[1] = test system: D0-thioate (D0-PS) (DNA, duplex, phosphorothioate at all 11 linkages) CGCGCGCGCGCG; settings: in serum (mouse serum), 37 °C, KD corrected for stoichiometry (per site)
[2] = test system: D1 (same sequence as G-quad) (DNA, G4) GGGCTTTTGGGC; settings: K+ (50 mM K2HPO4, 100 mM KCl per Methods; Table S2 says phosphate sodium), pH 7.00, 20 °C, KD corrected for stoichiometry (per site)
[3] = test system: D0 (DNA, duplex) CGCGCGCGCGCG; settings: Na+ (50 mM Na2HPO4, 100 mM NaCl), pH 7.00, 20 °C, KD corrected for stoichiometry (per site)
[4] = test system: D0-L-thioate (DNA, duplex, phosphorothioate at all 23 linkages) CGCGCGCGCGCGCGCGCGCGCGCG; settings: in serum (mouse serum), 37 °C, KD corrected for stoichiometry (per site)
[5] = test system: D2 (DNA, G4) GGTTGGTGTGGTTGG; settings: K+ (50 mM K2HPO4, 100 mM KCl per Methods; Table S2 says phosphate sodium), pH 7.00, 20 °C, KD corrected for stoichiometry (per site)
[6] = test system: D0-L-thioate-C16 (DNA, duplex, phosphorothioate at all 23 linkages) CGCGCGCGCGCGCGCGCGCGCGCG; settings: in serum (mouse serum), 37 °C, KD corrected for stoichiometry (per site)
[7] = test system: Q0 (DNA, aptamer) GGCGACAAGGAAAATCCTTCAACGAAGTGGGTCGCC; settings: Na+ (50 mM NaH2PO4, adjusted with NaOH); pH 7.00, 20 °C; KD corrected for stoichiometry (per site)
[8] = test system: Q1 (DNA, aptamer) GACAAGGAAAATCCTTCAACGAAGTGGGTCG; settings: Na+ (50 mM NaH2PO4, adjusted with NaOH); pH 7.00, 20 °C; KD corrected for stoichiometry (per site)
[9] = test system: Q2 (DNA, aptamer) GGCGACAAGGAAAATCCTTTCACGAAGTGGGTCGCCG; settings: Na+ (50 mM NaH2PO4, adjusted with NaOH); pH 7.00, 20 °C; KD corrected for stoichiometry (per site)

Structure (SMILES) | KD [1] [nM] | KD [2] [nM] | KD [3] [nM] | KD [4] [nM] | KD [5] [nM] | KD [6] [nM] | KD [7] [nM] | KD [8] [nM] | KD [9] [nM]
COc1cccc2c1C(=O)c1c(O)c3c(c(O)c1C2=O)C[C@@](O)(C(=O)CO)C[C@@H]3O[C@H]1C[C@H](N)[C@H](O)[C@H](C)O1 | 1020 ± 20 | 703 ± 80 | 133 ± 20 | 592 ± 100 | 3760 ± 300 | 578 ± 100 | – | – | –
C=C[C@H]1CN2CC[C@H]1C[C@H]2[C@H](O)c1ccnc2ccc(OC)cc12 | – | – | – | – | – | – | 89.7 ± 10 | 198 ± 6 | 2740 ± 200
